Results on 15 compounds are retold here after PubChem BioAssay AID248 (DTP/NCI, 2004).

This experiment deals with L1210 leukemia ip in BDF1 mice, survival T/C. Description: NCI In Vivo Anticancer Drug Screen. Data for tumor model L1210 Leukemia (intraperitoneal) in B6D2F1 (BDF1) mice. The conditions noted are these: endpoint: mean survival time, higher = longer survival. A digest of the protocol: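 Ratio derived from survival: compound-dosed mice over vehicle-dosed mice, all bearing a transplantable tumor.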

The mark [1] stands for this setting: dose: 100.0 mg/kg/injection, schedule: Q04DX002 (ip), vehicle: Klucel (hydroxypropylcellulose) (HPC).
[2] abbreviates: dose: 200.0 mg/kg/injection, schedule: Q04DX002 (ip), vehicle: Klucel (hydroxypropylcellulose) (HPC).
Setting [3] is: dose: 400.0 mg/kg/injection, schedule: Q04DX002 (ip), vehicle: Klucel (hydroxypropylcellulose) (HPC).
The mark [4] stands for this setting: dose: 100.0 mg/kg/injection, schedule: Q01DX001 (ip), vehicle: saline.
Setting [5] is: dose: 200.0 mg/kg/injection, schedule: Q01DX001 (ip), vehicle: saline.

Inconclusive results and toxic doses are left out.

Turning to `Cc1cccc(N)n1`, the T/C is, setting by setting: (dose: 25.0 mg/kg/injection, schedule: Q04DX002 (ip), vehicle: saline) 89 % of control; (dose: 50.0 mg/kg/injection, schedule: Q04DX002 (ip), vehicle: saline) 92 % of control.
Take `CC(=O)N(CC(=O)O)c1ccccc1`: the T/C runs as follows: (dose: 100.0 mg/kg/injection, schedule: Q04DX003 (ip), vehicle: saline with Tween-80) 101 % of control; (dose: 200.0 mg/kg/injection, schedule: Q04DX003 (ip), vehicle: saline with Tween-80) 103 % of control; (dose: 400.0 mg/kg/injection, schedule: Q04DX003 (ip), vehicle: saline with Tween-80) 98 % of control.
As for `N#C/C(=C\c1ccncc1)c1cccc2ccccc12`, the T/C was 114 % of control (dose: 100.0 mg/kg/injection, schedule: Q04DX003 (ip), vehicle: Klucel (hydroxypropylcellulose) (HPC)); 96 % of control (dose: 200.0 mg/kg/injection, schedule: Q04DX003 (ip), vehicle: Klucel (hydroxypropylcellulose) (HPC)); 97 % of control (dose: 400.0 mg/kg/injection, schedule: Q04DX003 (ip), vehicle: Klucel (hydroxypropylcellulose) (HPC)).
As for `CSc1ccc(NC(=O)Nc2cc(C)ccc2Cl)cc1`, the T/C (dose: 100.0 mg/kg/injection, schedule: Q01DX009 (ip), vehicle: Klucel (hydroxypropylcellulose) (HPC)) is 86 % of control; the T/C (dose: 200.0 mg/kg/injection, schedule: Q01DX009 (ip), vehicle: Klucel (hydroxypropylcellulose) (HPC)) is 93 % of control; the T/C (dose: 400.0 mg/kg/injection, schedule: Q01DX009 (ip), vehicle: Klucel (hydroxypropylcellulose) (HPC)) is 88 % of control.
As for `COC(=O)C1C2CCCCC2(C)CC12SCCS2` (centres undefined), the T/C was 107 % of control under setting [1], 107 % of control under setting [2] and 93 % of control under setting [3].
Take `c1ccc([Si](c2ccccc2)(c2cccs2)c2cccs2)cc1`: the T/C is, setting by setting: (dose: 100.0 mg/kg/injection, schedule: Q01DX009 (ip), vehicle: saline with Tween-80) 103 % of control; (dose: 200.0 mg/kg/injection, schedule: Q01DX009 (ip), vehicle: saline with Tween-80) 95 % of control.
Take `O=C(Nc1ccc(S(=O)(=O)F)cc1)OCc1ccc([N+](=O)[O-])cc1`: the T/C runs as follows: (dose: 100.0 mg/kg/injection, schedule: Q01DX001 (ip), vehicle: saline with Tween-80) 105 % of control; (dose: 200.0 mg/kg/injection, schedule: Q01DX001 (ip), vehicle: saline with Tween-80) 95 % of control; (dose: 400.0 mg/kg/injection, schedule: Q01DX001 (ip), vehicle: saline with Tween-80) 100 % of control.
For the compound `CC1(c2ccc(F)cc2)OC(=O)c2c1ccc1ccccc21` (centres undefined), the T/C was 101 % of control under setting [1], 94 % of control under setting [2] and 101 % of control under setting [3].
`N#CC1c2ccccc2-c2ccccc2N1C(=O)c1ccccc1` (centres undefined): the T/C by setting is: under setting [1], 93 % of control; under setting [2], 96 % of control; under setting [3], 107 % of control.
Turning to `COc1cc(N)c2ncsc2c1`, the T/C runs as follows: (dose: 100.0 mg/kg/injection, schedule: Q01DX009 (ip), vehicle: saline) 97 % of control; under setting [1], 94 % of control; (dose: 200.0 mg/kg/injection, schedule: Q01DX009 (ip), vehicle: saline) 102 % of control; under setting [2], 88 % of control; under setting [3], 91 % of control.
Turning to `Cc1coc(NS(=O)(=O)c2ccc(N=Nc3ccc(O)c4ncccc34)cc2)c1C`, the T/C is 102 % of control under setting [4] and 108 % of control under setting [5].
Regarding `NC(=O)c1cc([N+](=O)[O-])c(Cl)c([N+](=O)[O-])c1`, the T/C reads like this: (dose: 20.0 mg/kg/injection, schedule: Q04DX003 (ip), vehicle: Klucel (hydroxypropylcellulose) (HPC)) 97 % of control; (dose: 40.0 mg/kg/injection, schedule: Q04DX003 (ip), vehicle: Klucel (hydroxypropylcellulose) (HPC)) 97 % of control; (dose: 80.0 mg/kg/injection, schedule: Q04DX003 (ip), vehicle: Klucel (hydroxypropylcellulose) (HPC)) 103 % of control.
As to `CNC(=O)c1ccc(Cl)c(S(=O)(=O)NC)c1`, the T/C reads like this: under setting [1], 100 % of control; under setting [2], 104 % of control; under setting [3], 107 % of control.
On to `NS(=O)(=O)c1ccc(NC(=O)c2ccc(C(=O)Nc3ccc(S(N)(=O)=O)cc3)cc2)cc1`, for which the T/C is 100 % of control under setting [4]; 100 % of control under setting [5]; 100 % of control (dose: 400.0 mg/kg/injection, schedule: Q01DX001 (ip), vehicle: saline).
With `CN(C=O)c1ccc(C(=O)O)cc1`, the T/C was 123 % of control (dose: 100.0 mg/kg/injection, schedule: Q01DX001 (ip), vehicle: carboxymethylcellulose (CMC)); 96 % of control (dose: 200.0 mg/kg/injection, schedule: Q01DX001 (ip), vehicle: carboxymethylcellulose (CMC)); 94 % of control (dose: 400.0 mg/kg/injection, schedule: Q01DX001 (ip), vehicle: carboxymethylcellulose (CMC)).
